# Test results as given in paper PMC4854315, “Discovery of a novel allosteric inhibitor-binding site in ERK5: comparison with the canonical kinase hinge ATP-binding site” (Acta Crystallographica. Section D, Structural Biology, 2016).
# Tests used:
# Assay in all cases: Z'-LYTE kinase panel
# Assay type in all cases: biochemical
# [1] = target: T1, SRPK1 (Homo sapiens, UniProt Q96SB4)
# T1 construct: purchased ThermoFisher (SelectScreen, Z'-LYTE)
# In short: (§1)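 Standard Z′-LYTE protocol applied. Compound fixed at 10 µM. Output: % inhibition. Panel size 225 kinases.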
# [2] = target: T2, MAPK14 (p38 alpha) (Homo sapiens, UniProt Q16539); details: 10 µM compound; ATP 100
# T2 construct: purchased ThermoFisher (SelectScreen, Z'-LYTE)
# T2 sequence (Q16539 whole entry): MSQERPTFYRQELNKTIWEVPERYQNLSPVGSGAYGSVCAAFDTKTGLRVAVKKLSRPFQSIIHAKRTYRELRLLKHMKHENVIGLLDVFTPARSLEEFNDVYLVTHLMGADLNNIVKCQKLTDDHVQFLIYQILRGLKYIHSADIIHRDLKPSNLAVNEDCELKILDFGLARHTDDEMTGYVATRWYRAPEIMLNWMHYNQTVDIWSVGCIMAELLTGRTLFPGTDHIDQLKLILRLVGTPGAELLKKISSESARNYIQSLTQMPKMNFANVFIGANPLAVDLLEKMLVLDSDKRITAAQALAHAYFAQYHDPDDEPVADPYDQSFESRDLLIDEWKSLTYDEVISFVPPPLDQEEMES
# In short: as §1
# [3] = target: T3, CDC42 BPB (MRCKB) (Homo sapiens, UniProt Q9Y5S2)
# T3 construct: purchased ThermoFisher (SelectScreen, Z'-LYTE)
# In short: as §1
# [4] = target: T4, MAPK8 (JNK1) (Homo sapiens, UniProt P45983); details: 10 µM compound; ATP 100
# T4 construct: purchased ThermoFisher (SelectScreen, Z'-LYTE)
# In short: as §1
# [5] = target: T5, CAMK1D (CaMKI delta) (Homo sapiens, UniProt Q8IU85)
# T5 construct: purchased ThermoFisher (SelectScreen, Z'-LYTE)
# In short: as §1
# [6] = target: T6, RPS6KA4 (MSK2) (Homo sapiens, UniProt O75676)
# T6 construct: purchased ThermoFisher (SelectScreen, Z'-LYTE)
# T6 sequence (O75676 whole entry): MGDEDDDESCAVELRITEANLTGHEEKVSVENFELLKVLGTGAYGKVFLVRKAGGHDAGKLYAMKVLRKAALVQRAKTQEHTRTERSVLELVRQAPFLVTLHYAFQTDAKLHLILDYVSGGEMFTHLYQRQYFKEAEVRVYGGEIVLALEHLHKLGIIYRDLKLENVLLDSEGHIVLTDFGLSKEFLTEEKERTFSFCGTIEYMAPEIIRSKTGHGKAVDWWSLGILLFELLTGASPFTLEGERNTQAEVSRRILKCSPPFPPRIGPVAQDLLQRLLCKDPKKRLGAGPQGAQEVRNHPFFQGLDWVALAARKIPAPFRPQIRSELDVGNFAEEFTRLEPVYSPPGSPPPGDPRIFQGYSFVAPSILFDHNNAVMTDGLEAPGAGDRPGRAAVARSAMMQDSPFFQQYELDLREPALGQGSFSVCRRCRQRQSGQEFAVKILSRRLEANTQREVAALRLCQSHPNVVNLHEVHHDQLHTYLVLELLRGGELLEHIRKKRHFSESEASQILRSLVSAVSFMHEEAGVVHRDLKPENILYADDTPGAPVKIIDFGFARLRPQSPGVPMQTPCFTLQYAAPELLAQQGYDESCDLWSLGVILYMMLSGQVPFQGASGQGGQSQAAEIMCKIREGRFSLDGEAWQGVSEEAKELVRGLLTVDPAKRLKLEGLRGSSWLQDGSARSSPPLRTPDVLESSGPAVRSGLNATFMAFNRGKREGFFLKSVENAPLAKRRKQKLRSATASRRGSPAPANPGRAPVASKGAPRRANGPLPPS
# In short: as §1
# [7] = target: T7, PAK7 (KIAA1264) (Homo sapiens, UniProt Q9P286)
# T7 construct: purchased ThermoFisher (SelectScreen, Z'-LYTE)
# In short: as §1
# [8] = target: T8, EPHA2 (Homo sapiens, UniProt P29317)
# T8 construct: purchased ThermoFisher (SelectScreen, Z'-LYTE)
# T8 sequence (P29317 24-976): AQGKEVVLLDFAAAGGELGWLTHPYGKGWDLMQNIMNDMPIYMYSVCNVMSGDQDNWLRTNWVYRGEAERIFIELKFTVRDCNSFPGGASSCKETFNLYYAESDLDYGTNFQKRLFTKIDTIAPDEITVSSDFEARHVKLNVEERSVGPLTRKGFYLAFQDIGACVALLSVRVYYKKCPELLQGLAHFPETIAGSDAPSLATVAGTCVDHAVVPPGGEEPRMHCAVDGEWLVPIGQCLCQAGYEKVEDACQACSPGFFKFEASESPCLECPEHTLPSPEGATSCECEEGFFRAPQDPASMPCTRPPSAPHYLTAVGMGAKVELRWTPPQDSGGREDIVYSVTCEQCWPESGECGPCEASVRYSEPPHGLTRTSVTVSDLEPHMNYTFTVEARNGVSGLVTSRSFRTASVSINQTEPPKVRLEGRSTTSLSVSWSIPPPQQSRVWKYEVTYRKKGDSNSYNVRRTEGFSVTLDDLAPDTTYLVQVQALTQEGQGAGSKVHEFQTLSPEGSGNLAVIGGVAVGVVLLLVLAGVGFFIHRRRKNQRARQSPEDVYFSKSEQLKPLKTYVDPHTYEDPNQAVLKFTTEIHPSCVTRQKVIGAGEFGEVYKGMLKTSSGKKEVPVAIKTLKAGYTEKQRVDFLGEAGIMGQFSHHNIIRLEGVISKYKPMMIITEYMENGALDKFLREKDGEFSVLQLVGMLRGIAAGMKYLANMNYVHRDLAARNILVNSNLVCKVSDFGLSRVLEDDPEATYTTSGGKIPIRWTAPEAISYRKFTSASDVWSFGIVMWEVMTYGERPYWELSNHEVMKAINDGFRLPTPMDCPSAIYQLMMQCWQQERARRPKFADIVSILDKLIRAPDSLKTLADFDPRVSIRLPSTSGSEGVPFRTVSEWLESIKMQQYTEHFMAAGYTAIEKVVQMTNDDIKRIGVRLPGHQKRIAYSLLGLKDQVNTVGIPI
# In short: as §1
# [9] = target: T9, FYN (Homo sapiens, UniProt P06241)
# T9 construct: purchased ThermoFisher (SelectScreen, Z'-LYTE)
# T9 sequence (P06241 whole entry): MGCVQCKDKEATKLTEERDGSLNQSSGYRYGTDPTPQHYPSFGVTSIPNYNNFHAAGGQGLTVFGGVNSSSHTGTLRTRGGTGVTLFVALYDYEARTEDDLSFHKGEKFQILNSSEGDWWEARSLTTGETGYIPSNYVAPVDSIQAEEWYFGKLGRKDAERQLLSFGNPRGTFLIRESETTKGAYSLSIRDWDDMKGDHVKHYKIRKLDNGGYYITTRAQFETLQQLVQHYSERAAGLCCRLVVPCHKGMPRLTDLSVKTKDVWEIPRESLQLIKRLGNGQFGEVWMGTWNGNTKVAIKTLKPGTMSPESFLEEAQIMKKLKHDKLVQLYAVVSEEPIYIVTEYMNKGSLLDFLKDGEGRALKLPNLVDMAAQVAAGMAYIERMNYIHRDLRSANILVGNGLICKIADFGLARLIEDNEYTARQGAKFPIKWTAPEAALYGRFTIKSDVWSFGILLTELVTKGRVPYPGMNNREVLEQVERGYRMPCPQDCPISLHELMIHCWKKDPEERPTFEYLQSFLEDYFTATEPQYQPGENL
# In short: as §1
# [10] = target: T10, STK25 (YSK1) (Homo sapiens, UniProt O00506)
# T10 construct: purchased ThermoFisher (SelectScreen, Z'-LYTE)
# T10 sequence (O00506 whole entry): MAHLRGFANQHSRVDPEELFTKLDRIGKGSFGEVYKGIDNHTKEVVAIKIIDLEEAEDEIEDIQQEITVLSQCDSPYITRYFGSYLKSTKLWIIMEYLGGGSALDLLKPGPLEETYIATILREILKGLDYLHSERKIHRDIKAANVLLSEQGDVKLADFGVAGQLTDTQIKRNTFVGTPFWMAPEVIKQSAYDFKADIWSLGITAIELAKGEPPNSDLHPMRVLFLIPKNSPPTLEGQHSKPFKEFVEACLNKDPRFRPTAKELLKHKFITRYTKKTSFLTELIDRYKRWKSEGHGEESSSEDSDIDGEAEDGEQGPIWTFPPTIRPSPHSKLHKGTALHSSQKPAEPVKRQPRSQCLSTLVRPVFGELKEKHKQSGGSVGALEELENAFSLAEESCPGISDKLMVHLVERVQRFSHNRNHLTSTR
# In short: as §1
# [11] = target: T11, GRK6 (Homo sapiens, UniProt P43250)
# T11 construct: purchased ThermoFisher (SelectScreen, Z'-LYTE)
# T11 sequence (P43250 whole entry): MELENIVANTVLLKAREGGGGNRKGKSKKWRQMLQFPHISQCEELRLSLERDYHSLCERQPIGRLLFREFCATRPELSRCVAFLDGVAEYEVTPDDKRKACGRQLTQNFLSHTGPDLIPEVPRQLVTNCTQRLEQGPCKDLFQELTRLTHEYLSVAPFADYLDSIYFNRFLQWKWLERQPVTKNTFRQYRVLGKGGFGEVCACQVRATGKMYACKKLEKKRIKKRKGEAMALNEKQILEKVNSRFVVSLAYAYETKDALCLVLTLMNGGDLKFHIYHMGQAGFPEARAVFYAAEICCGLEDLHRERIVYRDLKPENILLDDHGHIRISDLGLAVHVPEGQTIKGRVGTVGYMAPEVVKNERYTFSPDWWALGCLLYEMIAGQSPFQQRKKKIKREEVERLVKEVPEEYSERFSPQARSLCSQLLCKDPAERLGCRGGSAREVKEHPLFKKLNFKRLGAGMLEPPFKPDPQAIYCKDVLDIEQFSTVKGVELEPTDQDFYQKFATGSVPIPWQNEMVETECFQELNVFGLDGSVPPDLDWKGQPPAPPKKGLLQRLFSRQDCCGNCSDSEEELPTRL
# In short: as §1
# [12] = target: T12, MAP2K1 (MEK1) (Homo sapiens, UniProt Q02750); details: 10 µM compound; ATP 100
# T12 construct: purchased ThermoFisher (SelectScreen, Z'-LYTE)
# In short: as §1
# [13] = target: T13, GSK3B (GSK3 beta) (Homo sapiens, UniProt P49841)
# T13 construct: purchased ThermoFisher (SelectScreen, Z'-LYTE)
# T13 sequence (P49841 whole entry): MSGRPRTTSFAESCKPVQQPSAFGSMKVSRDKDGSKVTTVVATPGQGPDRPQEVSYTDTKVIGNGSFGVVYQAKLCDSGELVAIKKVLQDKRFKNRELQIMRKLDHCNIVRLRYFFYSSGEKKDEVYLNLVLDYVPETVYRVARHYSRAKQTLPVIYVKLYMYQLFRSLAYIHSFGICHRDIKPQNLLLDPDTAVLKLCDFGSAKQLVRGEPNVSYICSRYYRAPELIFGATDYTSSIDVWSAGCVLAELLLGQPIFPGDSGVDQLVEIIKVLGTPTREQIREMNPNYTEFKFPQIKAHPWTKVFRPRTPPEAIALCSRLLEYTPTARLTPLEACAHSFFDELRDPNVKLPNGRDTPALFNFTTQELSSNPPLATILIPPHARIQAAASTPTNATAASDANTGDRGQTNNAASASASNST
# In short: as §1
# [14] = target: T14, RPS6KA1 (RSK1) (Homo sapiens, UniProt Q15418)
# T14 construct: purchased ThermoFisher (SelectScreen, Z'-LYTE)
# In short: as §1
# [15] = target: T15, NEK9 (Homo sapiens, UniProt Q8TD19)
# T15 construct: purchased ThermoFisher (SelectScreen, Z'-LYTE)
# T15 sequence (Q8TD19 1-979): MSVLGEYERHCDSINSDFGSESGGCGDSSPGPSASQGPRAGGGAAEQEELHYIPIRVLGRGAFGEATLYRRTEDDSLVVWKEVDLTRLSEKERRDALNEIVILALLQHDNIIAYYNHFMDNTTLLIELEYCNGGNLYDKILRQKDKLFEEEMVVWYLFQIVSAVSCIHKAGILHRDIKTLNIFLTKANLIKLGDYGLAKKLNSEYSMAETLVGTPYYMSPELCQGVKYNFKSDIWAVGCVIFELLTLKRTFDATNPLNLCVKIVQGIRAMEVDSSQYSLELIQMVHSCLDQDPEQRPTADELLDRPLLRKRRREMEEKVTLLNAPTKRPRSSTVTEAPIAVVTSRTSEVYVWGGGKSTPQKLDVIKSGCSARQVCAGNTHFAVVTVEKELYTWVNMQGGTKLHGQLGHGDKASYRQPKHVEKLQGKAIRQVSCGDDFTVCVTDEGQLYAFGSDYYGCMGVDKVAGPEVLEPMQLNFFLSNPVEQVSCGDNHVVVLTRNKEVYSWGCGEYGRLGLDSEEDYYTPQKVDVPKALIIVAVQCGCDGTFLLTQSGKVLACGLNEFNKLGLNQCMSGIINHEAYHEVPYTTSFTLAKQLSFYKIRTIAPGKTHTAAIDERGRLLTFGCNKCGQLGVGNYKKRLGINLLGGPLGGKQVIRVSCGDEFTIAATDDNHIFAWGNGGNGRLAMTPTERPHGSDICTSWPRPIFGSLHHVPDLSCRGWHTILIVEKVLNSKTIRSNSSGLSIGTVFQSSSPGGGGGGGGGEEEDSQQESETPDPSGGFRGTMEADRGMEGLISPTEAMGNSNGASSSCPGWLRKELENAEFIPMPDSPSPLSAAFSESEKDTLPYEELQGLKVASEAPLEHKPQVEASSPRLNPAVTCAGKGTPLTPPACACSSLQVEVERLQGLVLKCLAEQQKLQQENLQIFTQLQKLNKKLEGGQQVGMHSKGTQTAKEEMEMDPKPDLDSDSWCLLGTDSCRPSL
# In short: as §1
# [16] = target: T16, ADRBK2 (GRK3) (Homo sapiens, UniProt P35626)
# T16 construct: purchased ThermoFisher (SelectScreen, Z'-LYTE)
# T16 sequence (P35626 1-688): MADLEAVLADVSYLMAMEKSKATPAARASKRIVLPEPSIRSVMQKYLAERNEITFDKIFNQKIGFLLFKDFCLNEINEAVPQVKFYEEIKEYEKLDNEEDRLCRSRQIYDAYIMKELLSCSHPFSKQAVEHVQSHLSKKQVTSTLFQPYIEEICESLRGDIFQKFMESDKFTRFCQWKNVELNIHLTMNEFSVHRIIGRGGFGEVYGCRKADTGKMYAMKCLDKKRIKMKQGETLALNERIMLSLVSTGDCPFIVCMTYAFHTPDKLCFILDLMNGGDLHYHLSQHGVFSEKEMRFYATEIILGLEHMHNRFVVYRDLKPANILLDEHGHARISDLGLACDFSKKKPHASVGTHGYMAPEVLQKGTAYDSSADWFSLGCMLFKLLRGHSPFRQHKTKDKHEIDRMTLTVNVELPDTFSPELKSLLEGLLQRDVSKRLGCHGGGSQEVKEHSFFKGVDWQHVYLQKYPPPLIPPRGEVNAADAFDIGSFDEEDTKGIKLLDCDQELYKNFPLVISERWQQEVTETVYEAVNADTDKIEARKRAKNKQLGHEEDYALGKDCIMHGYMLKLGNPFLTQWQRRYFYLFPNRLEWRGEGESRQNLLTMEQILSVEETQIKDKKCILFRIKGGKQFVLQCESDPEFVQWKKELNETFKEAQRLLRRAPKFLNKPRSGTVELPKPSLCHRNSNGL
# In short: as §1
# [17] = target: T17, MARK1 (MARK) (Homo sapiens, UniProt Q9P0L2)
# T17 construct: purchased ThermoFisher (SelectScreen, Z'-LYTE)
# T17 sequence (Q9P0L2 whole entry): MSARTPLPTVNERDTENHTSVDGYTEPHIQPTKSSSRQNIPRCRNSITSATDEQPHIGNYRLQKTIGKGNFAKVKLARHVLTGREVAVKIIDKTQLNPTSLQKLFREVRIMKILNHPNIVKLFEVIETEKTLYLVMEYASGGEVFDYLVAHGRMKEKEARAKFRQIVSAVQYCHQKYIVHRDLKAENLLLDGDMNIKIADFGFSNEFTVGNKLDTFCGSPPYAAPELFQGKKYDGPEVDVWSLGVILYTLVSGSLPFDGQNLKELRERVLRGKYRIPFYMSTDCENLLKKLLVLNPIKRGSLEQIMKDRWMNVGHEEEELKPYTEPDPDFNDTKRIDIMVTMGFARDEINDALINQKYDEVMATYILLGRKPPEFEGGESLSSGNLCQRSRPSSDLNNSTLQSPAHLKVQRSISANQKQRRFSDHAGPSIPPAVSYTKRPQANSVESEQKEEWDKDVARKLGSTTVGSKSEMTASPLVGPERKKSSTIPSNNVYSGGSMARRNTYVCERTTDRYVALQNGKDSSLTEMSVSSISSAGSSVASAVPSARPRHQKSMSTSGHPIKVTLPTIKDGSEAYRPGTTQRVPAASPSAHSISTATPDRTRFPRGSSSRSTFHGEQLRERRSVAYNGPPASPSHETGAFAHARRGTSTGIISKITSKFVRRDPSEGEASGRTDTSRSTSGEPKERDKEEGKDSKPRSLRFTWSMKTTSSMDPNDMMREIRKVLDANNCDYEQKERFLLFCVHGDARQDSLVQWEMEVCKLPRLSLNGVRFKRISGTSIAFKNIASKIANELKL
# In short: as §1
Compound,inhibition at 10 µM [1] [%],inhibition at 10 µM [2] [%],inhibition at 10 µM [3] [%],inhibition at 10 µM [4] [%],inhibition at 10 µM [5] [%],inhibition at 10 µM [6] [%],inhibition at 10 µM [7] [%],inhibition at 10 µM [8] [%],inhibition at 10 µM [9] [%],inhibition at 10 µM [10] [%],inhibition at 10 µM [11] [%],inhibition at 10 µM [12] [%],inhibition at 10 µM [13] [%],inhibition at 10 µM [14] [%],inhibition at 10 µM [15] [%],inhibition at 10 µM [16] [%],inhibition at 10 µM [17] [%],other results
Cc1cc(Nc2nc(N)nn2C(=O)NC(C)C)ccc1Cl [Compound 5],2,26,5.45,-11,0.357,1.89,26,-1.47,15,12,-0.556,8.53,79,36,1.46,-7,17,–
Cc1ncc(-c2nc(Nc3ccc(C(=O)NCCN4CCCCC4)cc3)ncc2F)n1C(C)C [Compound 3],24,22,8,96,59,89,71,69,74,72,53,97,101,69,18,0.689,87,–
"XMD8-92 [Compound 2, reference compound]",–,–,–,–,–,–,–,–,–,–,–,–,–,–,–,–,–,"SRPK1 % Inhibition ([1]; 10 µM compound, ATP Km app): -3%; MAPK14 (p38 alpha) % Inhibition [2]: 99%; CDC42 BPB (MRCKB) % Inhibition ([3]; 10 µM compound, ATP Km app): -11%; MAPK8 (JNK1) % Inhibition [4]: 14%; CAMK1D (CaMKI delta) % Inhibition ([5]; 10 µM compound, ATP Km app): 19%; RPS6KA4 (MSK2) % Inhibition ([6]; 10 µM compound, ATP Km app): 12%; PAK7 (KIAA1264) % Inhibition ([7]; 10 µM compound, ATP Km app): 6%; EPHA2 % Inhibition ([8]; 10 µM compound, ATP Km app): -9.52%; FYN % Inhibition ([9]; 10 µM compound, ATP Km app): -14%; STK25 (YSK1) % Inhibition ([10]; 10 µM compound, ATP Km app): 9.49%; GRK6 % Inhibition ([11]; 10 µM compound, ATP Km app): 1.47%; MAP2K1 (MEK1) % Inhibition [12]: 17%; GSK3B (GSK3 beta) % Inhibition ([13]; 10 µM compound, ATP Km app): 88%; RPS6KA1 (RSK1) % Inhibition ([14]; 10 µM compound, ATP Km app): 5.45%; NEK9 % Inhibition ([15]; 10 µM compound, ATP Km app): -0.532%; ADRBK2 (GRK3) % Inhibition ([16]; 10 µM compound, ATP Km app): -7%; MARK1 (MARK) % Inhibition ([17]; 10 µM compound, ATP Km app): 11%"
